ChEMBL document CHEMBL3507680, “University of Dundee, Gates Library screen for HepG2 cell viability”

Assay: Human HepG2 cell viability assay in 384 well format
Format: toxicity, cell-based
Parameters: dose 125 nL, time 70.5 hour; cytotoxicity at 70.5 h: concentration not given beside the values
Details: HepG2 cells, read-out: Inhibition

| Structure (SMILES) | cytotoxicity at 70.5 h [%] |
| --- | --- |
| CN(Cc1cccnc1N)Cc1cccc2ncccc12 | -15.9 |
| COCc1ccc(C(=O)N2CCC(c3nccn3CC3CC3)CC2)o1 | -0.956 |
| CC(=O)NCc1cc2n(n1)CCN(Cc1cc(-c3ccccc3)no1)C2 | -18.6 |
| Cc1ccc2nc(C)cc(C(=O)N[C@H]3COC[C@@H]3N3CCOCC3)c2c1 | -6.73 |
| Cc1n[nH]c(C)c1Sc1ccccc1NC(=O)N1CCCC(C(N)=O)C1 (stereo not given) | 5.35 |
| CCn1c(C)nnc1SCCNc1nc(C)ncc1S(C)(=O)=O | -11.4 |
| Cc1nc(C(C)NC(=O)c2cn(CCC3CCCCC3)nn2)n[nH]1 (stereo not given) | -23.9 |
| N#Cc1ccccc1CN1C[C@@H]2CC[C@H](C1)N(CC1CCC1)C2=O | -4.58 |
| CCc1nc(Cn2ccnc2-c2nccn2C)no1 | -7.78 |
| COc1ccc2[nH]c(=O)c(CN(C)C(C)c3ccccn3)cc2c1 (stereo not given) | -7.2 |
| Cc1nn(-c2ccccc2)c2nc(C(C)(C)CN3CCN(C)CC3)[nH]c12 | -1.61 |
| COc1ccc(C(=O)O)cc1-c1cccc(C(C)N(C)C)c1 (stereo not given) | 0.229 |
| Cc1nc(C(F)(F)F)nc(N2CCC(O)(C(=O)O)CC2)c1C | -6.27 |
| CC(C)(C)N1CC(C(=O)N2CCN(CCn3cncn3)CC2)CC1=O (stereo not given) | -3.91 |
| Cn1c(Cn2ccnc2)nnc1C1CCN(C(=O)c2ccccn2)CC1 | 5.03 |
| CN(C)c1ncc2c(n1)CCCC2NC(=O)C1CC1 (stereo not given) | -11.8 |
| CCc1nn(C)c(Cl)c1CN1CCCC(c2cc(O)nc(C)n2)C1 (stereo not given) | -0.921 |
| CCCc1cc(NCCn2cccn2)n2nccc2n1 | 1.84 |
| CC(C)Cc1ncc2c(n1)CN(C(=O)c1ccc(Cn3ccnc3)o1)C2 | -17.7 |
| CCOCCN(CCOCC)c1nc(C)nc2sccc12 | -0.429 |
| CCc1ncc2c(n1)CN(c1cc(NCCO)nc(N)n1)C2 | -3.48 |
| COc1ccc(OC2CCN(C(=O)[C@@H](N)Cc3c[nH]cn3)CC2)cc1 | 1.71 |
| CN(CCCOc1ccccc1Cl)C(=O)CN1C(=O)CCNC1=O | -3.2 |
| CCc1cc(N[C@@H]2CC[C@@H](N)C2)n2nc(C)c(C)c2n1 | -7.75 |
| COc1ccc2c(c1)C(C(=O)N(C)CCc1cnn(C)c1)CC(=O)N2 (stereo not given) | -8.46 |
| Cc1nnc(CN2CCN(C)C3(CCC(=O)N(CCO)CC3)C2)s1 (stereo not given) | 3.3 |
| CCSc1ncc(-c2nccn2CCN(C)C)cn1 | 8.9 |
| O=C(NCc1ccccn1)c1cc2n(n1)CCNC2 | -3.91 |

| Structure (SMILES) | cytotoxicity at 70.5 h [%] |
| --- | --- |
| Cc1cc(-c2cc(S(=O)(=O)N3C[C@H](C4CC4)[C@@H](N)C3)c(C)s2)on1 | 19.4 |
| COCc1nc(CN2CCN(c3ccc(OC)cc3)C(=O)C2C)no1 (stereo not given) | -27.3 |
| COCCN1CCCC(O)(CN2CCN(Cc3ccncc3)CC2)C1=O (stereo not given) | -8.23 |
| CCCN(Cc1ccc(S(=O)(=O)NC)cc1)Cc1ccccc1OC | 1.33 |
| OCC1CCCCN1CCn1ccnc1-c1ccc2c(c1)OCCO2 (stereo not given) | -5.38 |
| Cc1ccsc1[C@@H]1CCN(C(=O)CCc2n[nH]c(C)c2C)C[C@H]1O | 0.289 |
| O=C(c1ccc(S(=O)(=O)N2CCSCC2)cc1)N1CCCCCC1 | 14.7 |
| CCn1ccnc1C1CCN(C(=O)C(O)c2ccc(OC)cc2)CC1 (stereo not given) | 4.82 |
| COCc1cc(N2CCc3onc(-c4cccc(OC)c4)c3C2)ncn1 | -5.12 |
| CN(C)S(=O)(=O)c1csc(C(=O)N2CCSCC2)c1 | -1.94 |
| CC(=O)N(C)C1CCN(c2ncc3c(n2)CCN3c2ccccc2)C1 (stereo not given) | -3.48 |
| COc1cccc(SCC(=O)N2CCC(N3CCCC(O)C3)CC2)c1 (stereo not given) | -2.74 |
| CCC(C(=O)NCc1ccncc1)N(c1cccc(Cl)c1)S(C)(=O)=O (stereo not given) | -2.79 |
| Cc1cc(C(=O)N2CCCC2)ccc1NS(C)(=O)=O | -7.84 |
| Cc1nc(N2C[C@H]3CNC[C@H]3C2)c2sccc2n1 | 5.86 |
| CSCCCn1ccnc1-c1cccc(C#N)c1 | 8.22 |
| CCN(CC)S(=O)(=O)c1csc(C(=O)N2CCC(C(N)=O)CC2)c1 | -2.86 |
| NC(=O)C1CCN(C(=O)c2cc(S(=O)(=O)N3CCCC3)cs2)CC1 | -8.68 |
| Cc1cc(C(=O)N2CCCCC2)ccc1NS(C)(=O)=O | -8.47 |
| CNC(=O)c1cc(OC)c(OC)cc1N(C)S(C)(=O)=O | -7.84 |
| O=C(Cc1nc(-c2ccncc2)n[nH]1)NCCCN1CCOCC1 | -10.7 |
| CN(C)S(=O)(=O)c1csc(C(=O)N2CCC(C(N)=O)CC2)c1 | -7.56 |
| COc1cccc([C@@H]2CCN(Cc3cn(C)c4ccccc34)C[C@H]2O)c1 | -10.7 |
| O=C1NCC2(CCCN(C(=O)Nc3cccc(-c4cscn4)c3)CC2)O1 (stereo not given) | 36 |
| Cc1ccc(-c2cc(C(=O)NCCC3=CCCCC3)[nH]n2)o1 | -10.6 |
| Cc1ccc(-c2nn(-c3cccc(F)c3)cc2CN(CCO)CCO)o1 | -17.7 |
| CCC(=O)N1CCC(Oc2ccc(C(=O)NCCN(C)C)cc2Cl)CC1 | 7.41 |
